Molecules are shown by their SMILES. Where only a bound is given, the exact number is not on record here.

The target of one assay is T1, RARγ (Homo sapiens, UniProt P13631).
T1 sequence (P13631 1-454): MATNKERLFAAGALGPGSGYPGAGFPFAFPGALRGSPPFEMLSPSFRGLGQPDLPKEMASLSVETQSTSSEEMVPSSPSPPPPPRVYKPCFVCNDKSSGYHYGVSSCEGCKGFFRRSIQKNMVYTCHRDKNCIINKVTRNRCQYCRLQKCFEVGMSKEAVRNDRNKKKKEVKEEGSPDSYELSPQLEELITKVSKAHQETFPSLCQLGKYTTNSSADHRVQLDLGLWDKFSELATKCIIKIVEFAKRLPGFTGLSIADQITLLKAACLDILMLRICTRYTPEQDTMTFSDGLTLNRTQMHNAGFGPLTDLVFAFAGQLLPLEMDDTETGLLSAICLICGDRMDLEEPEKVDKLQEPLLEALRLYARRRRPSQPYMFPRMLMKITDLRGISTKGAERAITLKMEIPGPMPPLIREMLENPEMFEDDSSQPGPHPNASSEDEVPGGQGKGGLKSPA
The experiment in a line: ligand binding assay, RARγ. Conditions: read-out: RAR Bind Ki γ. From the text:
(§1) Other assays described below, measure the ability of the compounds of the present invention to bind to, and/or activate various retinoid receptor subtypes. When in these assays a compound binds to a given receptor subtype and activates the transcription of a reporter gene through that subtype, then the compound is considered an agonist of that receptor subtype. […] In the below described assays the ability of the compounds to bind to RARα, RARβ, RARγ, RXRα, RXRβ and RXRγ receptors, and the ability or inability of the compounds to activate transcription of a reporter gene through these receptor subtypes can be tested. […] However, some of the compounds of the invention may behave as retinoid antagonists or partial antagonists and/or as inverse agonists. Because of the complex distribution of the different retinoid receptors in various organs of the mammalian body partial agonists and partial antagonists and compounds which have the characteristics of both may lend themselves to particularly useful therapeutic applications and may avoid serious side effects of conventional retinoid drugs.
(§2) A holoreceptor transactivation assay and a ligand binding assay which measure the antagonist/agonist like activity of the compounds of the invention, or their ability to bind to the several retinoid receptor subtypes, respectively, are described in published PCT Application No. WO WO93/11755 (particularly on pages 30-33 and 37-41) published on Jun. 24, 1993, the specification of which is also incorporated herein by reference. A detailed experimental procedure for holoreceptor transactivations has been described by Heyman et al. Cell 68, 397-406, (1992); Allegretto et al. J. Biol. Chem. 268, 26625-26633, and Mangelsdorf et al. The Retinoids: Biology, Chemistry and Medicine, pp 319-349, Raven Press Ltd., New York, which are expressly incorporated herein by reference. The results obtained in this assay are expressed in EC50 numbers, as they are also in the chimeric receptor transactivation assay. The results of ligand binding assay are expressed in Kd numbers. (See Cheng et al. Biochemical Pharmacology Vol. 22 pp 3099-3108, expressly incorporated herein by reference.)
(§3) Table 1 discloses the activity of certain exemplary compounds of the invention in the above-described chimeric receptor transactivation assay, holoreceptor transactivation assay and a ligand binding assays. Particularly, the transactivation data pertaining to RAR receptors were obtained in the chimeric assay, and the data pertaining to transactivation of RXR receptors were obtained in the holoreceptor transactivation assay.

Another assay deals with T2, RXRγ (Mus musculus, UniProt P28705).
T2 construct: expressed in transfected cells
T2 sequence (P28705 1-463): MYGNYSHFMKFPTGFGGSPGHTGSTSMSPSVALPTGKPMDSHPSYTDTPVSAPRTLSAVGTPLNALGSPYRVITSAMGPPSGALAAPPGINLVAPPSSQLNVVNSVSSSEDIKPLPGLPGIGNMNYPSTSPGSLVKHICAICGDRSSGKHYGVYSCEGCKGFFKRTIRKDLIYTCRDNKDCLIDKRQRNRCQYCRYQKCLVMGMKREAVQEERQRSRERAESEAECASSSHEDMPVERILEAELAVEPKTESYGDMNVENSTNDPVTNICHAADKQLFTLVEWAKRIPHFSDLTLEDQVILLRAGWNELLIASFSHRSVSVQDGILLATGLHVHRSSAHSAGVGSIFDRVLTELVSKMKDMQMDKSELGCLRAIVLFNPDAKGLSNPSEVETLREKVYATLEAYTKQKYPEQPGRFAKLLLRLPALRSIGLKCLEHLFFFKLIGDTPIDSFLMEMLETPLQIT
Description: holoreceptor transactivation assay, RXRγ. In kind it is cell-based. The note with it: for EC50: holoreceptor assay, read-out: RXR Trans EC50 γ; for Emax: relative to 10^-6 M cyclopropyl penta-2,4-dienoic acid reference, read-out: % efficacy, RXRγ transactivation.
Excerpt: as §1, §2, §3

In the next assay the target is T3, RXRβ (Mus musculus, UniProt P28704).
T3 construct: expressed in transfected cells
T3 sequence (P28704 1-520): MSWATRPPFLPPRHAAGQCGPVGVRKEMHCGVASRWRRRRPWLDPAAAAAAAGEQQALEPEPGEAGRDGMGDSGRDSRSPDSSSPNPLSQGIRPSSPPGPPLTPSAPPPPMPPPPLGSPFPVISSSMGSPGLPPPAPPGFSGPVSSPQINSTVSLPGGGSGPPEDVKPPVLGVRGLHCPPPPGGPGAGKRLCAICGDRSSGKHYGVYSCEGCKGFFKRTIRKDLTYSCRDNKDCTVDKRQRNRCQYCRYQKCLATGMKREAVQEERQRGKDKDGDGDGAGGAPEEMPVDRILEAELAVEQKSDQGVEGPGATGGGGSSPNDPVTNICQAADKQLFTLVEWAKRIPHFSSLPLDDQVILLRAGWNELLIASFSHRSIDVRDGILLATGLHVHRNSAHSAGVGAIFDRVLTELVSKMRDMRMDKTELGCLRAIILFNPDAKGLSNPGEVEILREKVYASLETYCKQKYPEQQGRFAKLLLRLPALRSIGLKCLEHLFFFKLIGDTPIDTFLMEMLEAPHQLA
Description: holoreceptor transactivation assay, RXRβ. The format is cell-based. Conditions: for EC50: holoreceptor assay, read-out: RXR Trans EC50 β; for Emax: relative to 10^-6 M cyclopropyl penta-2,4-dienoic acid reference, read-out: % efficacy, RXRβ transactivation.
Excerpt: as §1, §2, §3

Another assay deals with T4, RXRα (Homo sapiens, UniProt P19793).
T4 construct: expressed in transfected cells
T4 sequence (P19793 1-462): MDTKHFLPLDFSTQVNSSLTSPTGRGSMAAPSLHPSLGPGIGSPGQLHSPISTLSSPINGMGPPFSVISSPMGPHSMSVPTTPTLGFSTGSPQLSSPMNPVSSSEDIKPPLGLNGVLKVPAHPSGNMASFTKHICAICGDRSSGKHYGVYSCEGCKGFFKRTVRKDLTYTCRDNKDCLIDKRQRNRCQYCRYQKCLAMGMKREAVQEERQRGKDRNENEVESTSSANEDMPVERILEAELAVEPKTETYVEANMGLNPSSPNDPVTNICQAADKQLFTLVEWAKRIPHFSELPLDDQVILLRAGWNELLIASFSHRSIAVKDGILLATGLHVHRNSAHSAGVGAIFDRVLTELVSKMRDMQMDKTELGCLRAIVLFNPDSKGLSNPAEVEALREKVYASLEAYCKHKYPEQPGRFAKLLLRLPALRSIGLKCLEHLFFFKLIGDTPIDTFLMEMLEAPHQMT
The experiment in a line: ligand binding assay, RXRα. Conditions: read-out: RXR Bind Ki α.
Excerpt: as §1, §2, §3

`Cc1cc2c(cc1Nc1ccc(C(=O)O)cc1)N(C(C)C)CCC2(C)C` [Compound 50, 4-(1-Isopropyl-4,4,6-trimethyl-1,2,3,4-tetrahydro-quinolin-7-ylamino)-benzoic acid]: the Ki – broadly, a measure of affinity in units of concentration, obtained from inhibition or displacement – is above 10000 nM at RARγ and 327 nM at RXRα. For the same molecule, the concentration giving a half-maximal response (EC50) – broadly, the concentration needed to bring the measured effect to its halfway point – on RXRγ worked out at 4 nM; at RXRβ it was 27 nM. Further, the Emax is 102% at RXRγ and 104% at RXRβ.

Regarding `CC(C)CN(c1ccc(C(=O)O)cc1)c1ccc2c(c1)N(C(C)C)CCC2(C)C` [Compound 39, 4-[(1-Isopropyl-4,4-dimethyl-1 2,3,4-tetrahydroquinolin-7-yl)isobutylamino]benzoic acid], the results for the inhibitory constant (Ki) on RARγ and at RXRα were 2800 nM and 49 nM, respectively. Also, the EC50 was determined as 2 nM at RXRγ and 10 nM on RXRβ. Further, the Emax at RXRγ came out at 112%; at RXRβ, 97%.

With `CC(C)N1CCC(C)(C)c2ccc(N(CC3CC3)c3ccc(C(=O)O)cc3)cc21` [Compound 40, 4-[(1-Isolpropyl-4,4-dimethyl-1,2,3,4-tetrahydroquinolin-7-yl)(cylopropylmethyl)amino]benzoic acid], the Ki was determined as 3500 nM at RARγ and 9 nM on RXRα. Further, the EC50 stood at 0.2 nM on RXRγ and 3 nM on RXRβ. Besides, the values for the Emax at RXRγ and at RXRβ were 105% and 93%, respectively.

Take `CCN(c1ccc(C(=O)O)cc1)c1cc2c(cc1C)C(C)(C)CCN2C(C)C` [Compound 52, 4-[-(1-Isopropyl-4,4,6-trimethyl-1,2,3,4-tetrahydro-quinolin-7-yl)ethylamino]-benzoic acid]: the results for the Ki at RARγ and on RXRα were 10000 nM and 28 nM, respectively. The values for the concentration giving a half-maximal response (EC50) at RXRγ and on RXRβ were 0.5 nM and 2 nM, respectively. Further, the Emax at RXRγ and at RXRβ was 96% in each case.

With `CC(C)CCN(c1ccc(C(=O)O)cc1)c1ccc2c(c1)C(C)(C)CCN2C(C)C` [Compound 14, 4-[(1-Isopropyl-4,4-dimethyl-1,2,3,4-tetrahydroquinolin-6-yl)(3-methylbutyl)amino]-benzoic Acid], the Ki at RARγ is 1500 nM; on RXRα it was 904 nM.

Take `CCN(c1ccc(C(=O)O)cc1)c1cc2c(cc1C)N(C(C)C)CCC2(C)C` [Compound 24, 4-[(1-Isopropyl-4,4,7-trimethyl-1,2,3,4-tetrahydroquinolin-6-yl)ethylamino]benzoic acid]: the results for the Ki on RARγ and on RXRα were 9200 nM and 448 nM, respectively. Further, the EC50 was 69 nM on RXRγ and 1000 nM at RXRβ. The Emax at RXRγ stood at 117%; on RXRβ it was 70%.

As for `Cc1cc2c(cc1N(C)c1ccc(C(=O)O)cc1)C(C)(C)CCN2C(C)C` [Compound 22, 4-[(1-Isopropyl-4,4,7-trimethyl-1,2,3,4-tetrahydroquinolin-6-yl)methylamino]benzoic acid], the figures for the Ki at RARγ and at RXRα were 1700 nM and 1200 nM, respectively. Also, the EC50 at RXRγ was 1000 nM; on RXRβ it was above 1000 nM. Moreover, the results for the Emax at RXRγ and on RXRβ were 100% and 15%, respectively.

On to `CCN(c1ccc(C(=O)O)cc1)c1ccc2c(c1)C(C)(C)CCN2C(C)C` [Compound 12, 4-[(1-Isopropyl-4,4-dimethyl-1,2,3,4-tetrahydroquinolin-6-yl)ethylamino]benzoic acid], for which the values for the Ki at RARγ and at RXRα were 1000 nM and 136 nM, respectively. Also, the 50% effective concentration (EC50) was found to be 148 nM at RXRγ and 1000 nM at RXRβ. The results for the Emax at RXRγ and on RXRβ were 150% and 75%, respectively.

As to `CCN(c1ccc(C(=O)O)cc1)c1ccc2c(c1)C(C)(C)CC(=O)N2C(C)C` [Compound 6, 4-[(1-Isopropyl-4,4-dimethyl-2-oxo-1,2,3,4-tetrahydroquinolin-6-yl)ethylamino]benzoic Acid], the Ki on RARγ was above 30000 nM. For the same molecule, at RXRβ, the 50% effective concentration (EC50) is above 1000 nM and the Emax was determined as 40%. Besides, on RXRα, the inhibition constant Ki was found to be 9000 nM.

For the molecule `Cc1cc2c(cc1N(CC1CC1)c1ccc(C(=O)O)cc1)C(C)(C)CCN2C(C)C` [Compound 26, 4-[(1-Isopropyl-4,4,7-trimethyl-1,2,3,4-tetrahydro-quinolin-6-yl)(cyclopropylmethyl)amino]benzoic acid], the inhibition constant (Ki) turned out to be 4700 nM on RARγ and 413 nM on RXRα. Further, the EC50 was 1000 nM at RXRγ and above 1000 nM on RXRβ. For the same molecule, the Emax is 75% on RXRγ and 10% at RXRβ.

For the molecule `CCN(c1ccc(C(=O)O)cc1)c1ccc2c(c1)N(C(C)C)CCC2(C)C` [Compound 38, 4-[(1-Isopropyl-4,4-dimethyl-1,2,3,4-tetrahydroquinolin-7-yl)ethylamino]benzoic acid], the values for the inhibition constant (Ki) on RARγ and at RXRα were 6300 nM and 10 nM, respectively. In addition, the half-maximal effective concentration (EC50) on RXRγ came out at 1 nM; on RXRβ it was 7 nM. Besides, the Emax on RXRγ stood at 109%; at RXRβ it was 102%.

`CC(C)N1CCC(C)(C)c2cc(N(C)c3ccc(C(=O)O)cc3)ccc21` [Compound 10, 4-[(1-Isopropyl-4,4-dimethyl-1,2,3,4-tetrahydroquinolin-6-yl)methylamino]benzoic Acid]: the results for the Ki at RARγ and at RXRα were above 10000 nM and above 1000 nM, respectively. For the same molecule, the EC50 on RXRγ is 1000 nM. The Emax at RXRγ was 50%.

The values are drawn from patent US6127382A, “Amines substituted with a tetrahydroquinolinyl group an aryl or heteroaryl group and an alkyl group, having retinoid-like biological activity” (Allergan Sales, Inc., priority 1999, dated 2000).
